Measurements reported in patent publication US9981901B2, “IRE-1α inhibitors” (FOSUN ORINOVE PHARMATECH, INC., priority 2007, dated 2018).

Experiments:
[1] = tested on: RPMI-8226 multiple myeloma cells; test: Proliferation of multiple myeloma cells (CellTiter-Glo); format: cell-based, human; settings: RPMI8226, 24 hours, 100 μM to 0 μM
Protocol: FIG. 5. Graph showing inhibition of proliferation of multiple myeloma cells by IRE-1α inhibitor 11-28 (Example 11). RPMI-8226 multiple myeloma cells were seeded at 20,000 cells per well in RPMI culture medium containing 1% FBS and the required antibiotics. The plate was incubated overnight at 37° C., 95% air, 5% CO2. The following day, compound 11-28 or medium alone was added to wells, resulting in a final volume of 100 μl per well. The compound concentration ranged from 100 μM to 0 μM, with compounds diluted by a factor of 4. After addition of compound, the plate was incubated at 37° C., 95% air, 5% CO2 for 24 hours. Cell proliferation was measured using the CellTiter-Glo assay (Promega), following the manufacturer's instructions.
Proliferation assays using myeloma cell lines (U266, RPMI8226 and MM.1s) are used to determine ED50. Compounds are used as single agents and in combination with other chemotherapeutic drugs.

[2] = tested on: phosphorylated IRE-1α and XBP1-splicing in RPMI8226 cells; test: Western blot and RT-PCR of bortezomib-treated RPMI8226 cells; format: cell-based, human; settings: 24 hour treatment
[3] = tested on: human myeloma RPMI8226 tumor xenografts; test: RPMI8226 xenograft efficacy model; format: in vivo, mouse; settings: SCID mice, 0.75 mg/kg IV twice weekly
Protocol: Mice are monitored for tumor growth, regression and general health. Tumors are collected and characterized by immunohistochemistry and/or FACS analysis. Tumor growth is measured by calipers, ultrasound, or by abdominal lavage. Biomarkers in the blood or tumor can evaluated (primarily XBP-1 splicing).

[4] = tested on: primary murine B cells; test: IgM secretion after LPS stimulation of primary B cells; format: cell-based, mouse; settings: added at beginning of stimulation and again at 24 hours; all doses down to 100 nM
Protocol: FIG. 9. Inhibition of IgM secretion after LPS stimulation of primary murine B cells with selected IRE-1α inhibitors. […] However, compounds had little effect when at added after 40 hours of stimulation; only slight inhibition at the highest dose. Methods were performed as previously described by Iwakoshi et al., Nature 4, 321-29, 2003 for B cell stimulation, plasma cell differentiation and IgM secretion. Primary B cells were Isolated from BALB/c splenocytes using mouse CD43 Microbeads (Miltenyi cat#130-049-801) with 1×10^6 cells per treatment. Purified B cells were stimulated in B Cell Media at a final density of 1×10^6/ml/well in 24-well plates with 20 μg/ml LPS (Sigma cat# L4391). IRE-1α inhibitor compound 17-1 was added at various concentrations (50 μM, 10 μM, 2 μM, 0.4 μM and 0.08 μM) at specified time points (t=0, t=24 hr, t=40 hr, etc.) Cells were incubated for 48 hr at 37° C. At end of the incubation, cells were spun in a plate at 1500 rpm/3 min. Supernatants were collected for quantitation for IgM secretion using a mouse IgM ELISA Kit (Bethyl Labs cat# E90-101). B Cell medium included RPMI+10% FBS supplemented with NEAA, HEPES, NaPyr, PSQ, and β-mercaptoethanol.

**Q.** Which “inhibition of cell proliferation” value [1] does the source give for `COc1cc(-c2cccs2)cc(C=O)c1O` [11-28] here?
**A.** inhibits the proliferation

**Q.** `CC(C)C[C@H](NC(=O)[C@H](Cc1ccccc1)NC(=O)c1cnccn1)B(O)O` [bortezomib, [(1R)-3-methyl-1-[[(2S)-1-oxo-3-phenyl-2-[(pyrazinylcarbonyl)amino]propyl]amino]butyl] boronic acid] was tested. Which XBP1-splicing [2] did it give?
**A.** increases

**Q.** What about the “levels of phosphorylated IRE-1α” value [2] of the same molecule?
**A.** increases

**Q.** And the tumor growth [3]?
**A.** suppression of tumor growth

**Q.** Which IgM secretion [4] does the source give for `CN(C)C(=O)c1ccc(-c2ccc3c(C=O)c(O)ccc3c2)cc1` [compound 17-1, 4-(5-formyl-6-hydroxynaphthalen-2-yl)-N,N-dimethylbenzamide] here?
**A.** blocked IgM secretion
